The structures appear in SMILES notation. ≈ marks a conversion by molar mass, not a printed value.

Test in all cases: ≥ marks a high value that may be exact or a test limit, other limits are often not marked, values filed in µg/mL are converted to µM
For experiment [1], the system named is Pseudomonas aeruginosa ATCC 27853.
Experiment [2] relates to Klebsiella pneumoniae ATCC 700603.
The test system of experiment [3] is Bacillus subtilis ATCC 6633.
Experiment [4] concerns Staphylococcus epidermidis ATCC 12228.
Experiment [5] concerns Escherichia coli ATCC 25922.
Experiment [6] has as its system Staphylococcus aureus ATCC 25923.
Experiment [7] has as its system Staphylococcus aureus NCTC 8325.
Experiment [8] concerns Candida albicans ATCC 90028.
Experiment [9] concerns Staphylococcus aureus ATCC 43300.
In experiment [10] the test system is Escherichia coli UB1005.
Experiment [11] has as its system Salmonella enterica subsp. enterica serovar Typhimurium ATCC 14028.
Experiment [12] relates to Staphylococcus aureus ATCC 29213.
For experiment [13], the system named is Salmonella enterica subsp. enterica serovar Typhimurium C77-31.
The subject of experiment [14] is Escherichia coli KCTC 1682.
Experiment [15] concerns Salmonella typhimurium KCTC 1926.
Experiment [16] deals with Bacillus subtilis KCTC 3068.
Experiment [17] has as its system Pseudomonas aeruginosa KCTC 1637.
Experiment [18] has as its system Staphylococcus epidermidis KCTC 1917.
In experiment [19] the test system is Staphylococcus aureus KCTC 1621.
The subject of experiment [20] is Escherichia coli.
For experiment [21], the system named is Candida albicans.
The test system of experiment [22] is Staphylococcus aureus.

For `CC(=O)N[C@@H](Cc1ccccc1)C(=O)N[C@@H](CCCCN)C(=O)N[C@@H](CC(C)C)C(=O)N[C@@H](CCCCN)C(=O)N[C@@H](CC(C)C)C(=O)N[C@@H](CCCCN)C(=O)N[C@@H](Cc1ccccc1)C(=O)N[C@@H](CO)C(=O)N[C@@H](CC(N)=O)C(=O)N[C@@H](CCCCN)C(=O)N[C@@H](CC(C)C)C(=O)N[C@@H](CCCCN)C(=O)N[C@@H](Cc1c[nH]c2ccccc12)C(=O)N[C@@H](CCCCN)C(=O)N[C@@H](Cc1c[nH]c2ccccc12)C(N)=O` [FKLKLKFSNKLKWKW], the minimal inhibitory concentration (MIC) in experiment [1] was 12.5 µM (≈ 25.4 µg/mL); in [2] it was 25 µM (≈ 50.9 µg/mL); in [3], 3.2 µM (≈ 6.51 µg/mL); in [4] it was 12.5 µM (≈ 25.4 µg/mL); in experiment [5], 12.5 µM (≈ 25.4 µg/mL); in experiment [6] it was 25 µM (≈ 50.9 µg/mL).

Regarding `CC[C@H](C)[C@@H]1NC(=O)[C@H](C)NC(=O)[C@@H](NC(=O)[C@H](Cc2ccccc2)NC(=O)[C@@H](NC(=O)[C@H](CCCCN)NC(=O)[C@@H]2CCCN2C(=O)[C@H](CC(C)C)NC(=O)[C@H](Cc2ccccc2)NC(=O)[C@H](CCCCN)NC(=O)[C@H](C)NC(=O)[C@H](C)NC(=O)[C@@H](NC(=O)CNC(=O)[C@H](C)NC(=O)[C@@H](NC(=O)[C@H](Cc2ccccc2)NC(=O)[C@@H]2CCCN2C(=O)[C@H](CC(C)C)NC(=O)[C@@H](N)Cc2ccccc2)[C@@H](C)CC)C(C)C)[C@@H](C)CC)CSSC[C@@H](C(=O)O)NC(=O)[C@H](CCCCN)NC(=O)[C@H](CCCCN)NC(=O)[C@H](CO)NC1=O` [FLPFIAGVAAKFLPKIFCAISKKC], the minimal inhibitory concentration (MIC) in [7] was 13 µM (≈ 33.9 µg/mL).

Consider `CC[C@H](C)[C@@H]1NC(=O)[C@H](CC(C)C)NC(=O)[C@@H](NC(=O)[C@H](CC(C)C)NC(=O)[C@H](CC(C)C)NC(=O)[C@H](CCCCN)NC(=O)[C@@H]2CCCN2C(=O)CNC(=O)[C@H](CC(C)C)NC(=O)[C@@H](NC(=O)[C@H](C)NC(=O)[C@H](C)NC(=O)[C@H](CC(C)C)NC(=O)[C@H](CO)NC(=O)[C@H](C)NC(=O)[C@H](CC(C)C)NC(=O)[C@@H](NC(=O)[C@@H]2CCCN2C(=O)[C@H](CC(C)C)NC(=O)[C@@H](N)Cc2ccccc2)[C@@H](C)CC)[C@@H](C)O)CSSC[C@@H](C(=O)O)NC(=O)[C@H](CCCCN)NC(=O)[C@H](CCCCN)NC(=O)[C@H]([C@@H](C)O)NC1=O` [FLPILASLAATLGPKLLCLITKKC], for which the values for the MIC in experiment [8] and in experiment [7] were no less than 35 µM and 8 µM (≈ 20.2 µg/mL), respectively.

Take `CC[C@H](C)[C@H](NC(=O)[C@H](CCCCN)NC(=O)[C@@H]1CCCN1C(=O)[C@H](CC(C)C)NC(=O)[C@H](Cc1ccccc1)NC(=O)[C@H](CC(N)=O)NC(=O)[C@H](C)NC(=O)[C@H](C)NC(=O)[C@H](CC(C)C)NC(=O)CNC(=O)[C@H](C)NC(=O)[C@H](CC(C)C)NC(=O)[C@H](CC(C)C)NC(=O)[C@@H]1CCCN1C(=O)[C@H](CC(C)C)NC(=O)[C@@H](N)Cc1ccccc1)C(=O)N[C@@H](Cc1ccccc1)C(=O)N[C@H]1CSSC[C@@H](C(=O)O)NC(=O)[C@H](CCCCN)NC(=O)[C@H](CCCCN)NC(=O)[C@H]([C@@H](C)O)NC(=O)[C@H]([C@@H](C)CC)NC(=O)[C@H](CCCCN)NC1=O` [FLPLLAGLAANFLPKIFCKITKKC]: the figures for the MIC in [7] and in experiment [5] were 12.5 µM (≈ 33.1 µg/mL) and 25 µM (≈ 66.2 µg/mL), respectively.

For `CC[C@H](C)[C@H](NC(=O)CNC(=O)[C@H](C)NC(=O)[C@@H](NC(=O)[C@H](CC(=O)O)NC(=O)[C@H](CCCCN)NC(=O)[C@H](C)NC(=O)[C@H](C)NC(=O)CNC(=O)[C@H](CCCCN)NC(=O)[C@H](CC(C)C)NC(=O)[C@@H](NC(=O)[C@H](CC(=O)O)NC(=O)[C@H](CC(C)C)NC(=O)[C@H](CC(C)C)NC(=O)[C@H](CC(C)C)NC(=O)CN)[C@@H](C)O)[C@@H](C)CC)C(=O)N[C@@H](C)C(=O)N[C@@H](CC(C)C)C(=O)N[C@@H](CCC(=O)O)C(=O)N[C@@H](CCCCN)C(=O)N[C@@H](CC(C)C)C(=O)N[C@@H](CCCCN)C(=O)N[C@H]1CSSC[C@@H](C(=O)N[C@@H](CCCCN)C(=O)N2CCC[C@H]2C(=O)O)NC(=O)CNC(=O)[C@H]([C@@H](C)O)NC(=O)[C@H]([C@@H](C)CC)NC(=O)[C@H](CCCCN)NC1=O` [GLLLDTLKGAAKDIAGIALEKLKCKITGCKP], the minimum inhibitory concentration (MIC) in experiment [7] was no less than 150 µM; in experiment [5], 19 µM (≈ 60.4 µg/mL).

Consider `CC[C@H](C)[C@H](N)C(=O)N[C@@H](CCCN=C(N)N)C(=O)N1CCC[C@H]1C(=O)N[C@H](C(=O)N[C@@H](CCCN=C(N)N)C(=O)N1CCC[C@H]1C(=O)O)[C@@H](C)CC` [IRPIRP], for which the MIC is greater than 128 µM in [1]; greater than 128 µM in experiment [9]; greater than 128 µM in [4]; no less than 128 µM in experiment [10]; greater than 128 µM in experiment [11]; greater than 128 µM in experiment [12]. The MIC in [5] was greater than 128 µM; in experiment [13], no less than 128 µM; in experiment [6] it was greater than 128 µM.

Consider `CC[C@H](C)[C@H](NC(=O)[C@H](CCCN=C(N)N)NC(=O)[C@H](CCCN=C(N)N)NC(=O)[C@H](CC(C)C)NC(=O)[C@@H](N)CCCN=C(N)N)C(=O)N[C@@H](Cc1c[nH]c2ccccc12)C(=O)N[C@@H](Cc1c[nH]c2ccccc12)C(=O)N[C@H](C(=O)N[C@@H](CCCN=C(N)N)C(=O)N[C@H](C(=O)N[C@@H](CCCN=C(N)N)C(=O)N[C@@H](CCCN=C(N)N)C(N)=O)C(C)C)[C@@H](C)CC` [RLRRIWWIRVRR], for which the MIC was 7.08 µM (≈ 12.5 µg/mL) in [14]; 1.77 µM (≈ 3.13 µg/mL) in [15]; 7.08 µM (≈ 12.5 µg/mL) in experiment [16]; 3.54 µM (≈ 6.25 µg/mL) in experiment [17]; 3.54 µM (≈ 6.25 µg/mL) in [18]; 3.54 µM (≈ 6.25 µg/mL) in experiment [19].

Take `CC[C@H](C)[C@H](NC(=O)[C@@H](NC(=O)[C@@H]1CCCN1C(=O)[C@H](CC(C)C)NC(=O)[C@@H](NC(=O)[C@@H](N)CO)[C@@H](C)CC)[C@@H](C)O)C(=O)N[C@H](C(=O)N[C@@H](CO)C(=O)N[C@@H](Cc1ccccc1)C(=O)N[C@@H](CC(C)C)C(=O)N[C@H](C(=O)N[C@@H](CCCCN)C(=O)N[C@@H](Cc1ccccc1)C(=O)N[C@@H](CC(C)C)C(N)=O)[C@@H](C)O)C(C)C` [SILPTIVSFLTKFL]: the MIC in experiment [7] came to 25 µM (≈ 39.4 µg/mL).

As to `CC[C@H](C)[C@H](NC(=O)[C@H](CCCCN)NC(=O)[C@H](CS)NC(=O)[C@H](C)NC(=O)[C@@H](NC(=O)[C@H](Cc1ccccc1)NC(=O)[C@H](CCC(=O)O)NC(=O)[C@H](CC(C)C)NC(=O)[C@H](CCC(=O)O)NC(=O)[C@@H](NC(=O)[C@H](CCCCN)NC(=O)[C@H](CCC(=O)O)NC(=O)[C@H](CC(C)C)NC(=O)[C@H](CC(N)=O)NC(=O)[C@H](CCCCN)NC(=O)[C@H](CC(C)C)NC(=O)[C@@H](NC(=O)[C@H](CO)NC(=O)[C@H](CC(C)C)NC(=O)[C@H](CCSC)NC(=O)[C@@H](N)CO)C(C)C)C(C)C)C(C)C)C(=O)N[C@@H](CC(N)=O)C(=O)N[C@@H](CCCCN)C(=O)N[C@@H](CCC(N)=O)C(=O)N[C@@H](CS)C(=O)O` [SMLSVLKNLEKVELEFVACKINKQC], the MIC in [20], in experiment [21] and in experiment [22] was greater than 200 µM throughout.

For the compound `CC[C@H](C)[C@H](NC(=O)[C@H](CCCN=C(N)N)NC(=O)[C@H](CCCN=C(N)N)NC(=O)[C@@H](NC(=O)[C@@H](NC(=O)[C@H](CCCN=C(N)N)NC(=O)[C@H](CCCCN)NC(=O)[C@@H](N)Cc1c[nH]c2ccccc12)[C@@H](C)CC)C(C)C)C(=O)N[C@@H](Cc1c[nH]c2ccccc12)C(=O)N[C@@H](CCCN=C(N)N)C(=O)N[C@@H](Cc1c[nH]c2ccccc12)C(=O)N[C@@H](CC(C)C)C(=O)N[C@@H](CCCN=C(N)N)C(N)=O` [WKRIVRRIWRWLR], the MIC in experiment [14] came out at 8 µM (≈ 15.4 µg/mL); in experiment [15], 4 µM (≈ 7.69 µg/mL); in [16], 2 µM (≈ 3.85 µg/mL); in experiment [17], 16 µM (≈ 30.8 µg/mL); in experiment [18], 8 µM (≈ 15.4 µg/mL); in experiment [19], 2 µM (≈ 3.85 µg/mL).

Source of the values: DBAASP.
